Tested on: yeast genes (expressed mRNA)
Test: DNA chip measurement of expressed mRNA of yeast genes after culture with a toxic chemical substance
Assay type: cell-based, Saccharomyces cerevisiae S288C
Description: Yeast (Saccharomyces cerevisiae S288C (a SUC2mal mel gap2 CUP1)) were cultured at 25° C. on YPD medium (yeast extract 1%, polypeptone 2%, glucose 2%). One of toxic chemical substances was added to the cell at logarithmic growth phase, and the cell was further cultured for two hours. Cell was cultured without any chemical substance in the same condition, and was used as a control. Concentrations of the chemical substances were defined to inhibit the growth of the yeast but not lead to death.
After the completion of cultivation, the culture was centrifuged to collect the cells. To the cells, sodium acetate buffer (50 mM sodium acetate, 10 mM EDTA, 1% SDS) was added, and the mixture was shaken at 65° C. for five minutes, followed by returning to room temperature, and obtaining the supernatant, which procedure was repeated two times. To the supernatant, ½ amount of a solution of phenol/chloroform (1:1) was added, and the mixture was centrifuged to give a supernatant, an equal amount of chloroform was added, and the mixture was centrifuged to give a supernatant. To the supernatant, an equal amount of isopropanol containing 0.3 M sodium acetate was added, and the mixture was allowed to stand at room temperature for 30 minutes, after which the mixture was centrifuged to give sediment of the whole RNAs. Seventy % ethanol was added to the sediment, and the mixture was again centrifuged to give sediment, which was then dried and dissolved in water. mRNA was isolated from the whole RNAs as followings. In view of the fact that a poly A chain is attached to the 3′ terminus of mRNA, a polynucleotide having a poly T structure which was immobilized on the surface of latex beads was used to trap the mRNA, and then the mRNA was washed and eluted with spine column (Oligotex-dT30<Super>mRNA Purification Kit, Takara). Reverse transcription of the mRNA was conducted with a reverse transcriptase (Super Script II Reverse Transcriptase; catalogue No. 18064-014, GibcoBRL) using fluorescence-labeled nucleotides to give cDNAs that were introduced with Cy3-dUTP or Cy5-dUTP during the reverse transcription.
The labeled cDNAs were dissolved in TE buffer (10 mM Tris-HCl/1 mM EDTA, pH 8.0), and the solution was dropped on the DNA chip containing the whole genes of yeast (DNA Chip Research Inc. Japan) so that the cDNAs were hybridized on the DNA chip at 65° C. for over 12 hours. The fluoresces intensity of the DNA chip was read with a scanner, and the ratio relative to the fluorescence intensity resulting from the absence of chemical substance was estimated as the following, which is shown in Tables 1 to 9.
In the Tables, “Intensity” indicated in the rightmost column is a value of the level of expressed mRNA of each gene in control cells as divided by the average level of the expressions of the whole genes. A gene of which mRNA level is lower in control, and is higher in cases of addition of chemical substance, is especially useful in the detection of toxic substances.
Here, when a ratio of an amount of mRNA expressed in the presence of the chemical substance to an amount of mRNA expressed in the absence of the chemical substance is two or more, then it is considered significant.

COc1cc(CNC(=O)CCCCC=CC(C)C)ccc1O [(12), 8-Methyl-N-vanillyl-6-nonenamide] was tested, and the “The level of expressed mRNA in the presence of chemical substance/The level of expressed mRNA in the absence of chemical substance” value (yeast gene YJL151C, cultured two hours with substance) was 1.3, the “The level of expressed mRNA in the presence of chemical substance/The level of expressed mRNA in the absence of chemical substance” value (yeast gene YJL152W, cultured two hours with substance) was 1.0 and the “The level of expressed mRNA in the presence of chemical substance/The level of expressed mRNA in the absence of chemical substance” value (yeast gene YJL161W, cultured two hours with substance) was 1.0. The “The level of expressed mRNA in the presence of chemical substance/The level of expressed mRNA in the absence of chemical substance” value (yeast gene YJL165C (stress protein genes)) was 0.9, the “The level of expressed mRNA in the presence of chemical substance/The level of expressed mRNA in the absence of chemical substance” value (yeast gene YJL171C, cultured two hours with substance) was 1.0 and the “The level of expressed mRNA in the presence of chemical substance/The level of expressed mRNA in the absence of chemical substance” value (yeast gene YJL186W, cultured two hours with substance) was 0.6. For the same molecule, the “The level of expressed mRNA in the presence of chemical substance/The level of expressed mRNA in the absence of chemical substance” value (yeast gene YJR008W, cultured two hours with substance) was 1.3, the “The level of expressed mRNA in the presence of chemical substance/The level of expressed mRNA in the absence of chemical substance” value (yeast gene YJR054W, cultured two hours with substance) was 0.9 and the “The level of expressed mRNA in the presence of chemical substance/The level of expressed mRNA in the absence of chemical substance” value (yeast gene YKL071W, cultured two hours with substance) was 1.0. The “The level of expressed mRNA in the presence of chemical substance/The level of expressed mRNA in the absence of chemical substance” value (yeast gene YKL086W, cultured two hours with substance) was 0.6, the “The level of expressed mRNA in the presence of chemical substance/The level of expressed mRNA in the absence of chemical substance” value (yeast gene YKL151C, cultured two hours with substance) was 1.0 and the “The level of expressed mRNA in the presence of chemical substance/The level of expressed mRNA in the absence of chemical substance” value (yeast gene YKL152C, cultured for two hours with substance) was 1.5. For the same molecule, the “The level of expressed mRNA in the presence of chemical substance/The level of expressed mRNA in the absence of chemical substance” value (yeast gene YKL153W, cultured two hours with substance) was 1.1, the “The level of expressed mRNA in the presence of chemical substance/The level of expressed mRNA in the absence of chemical substance” value (yeast gene YKL195W, cultured two hours with substance) was 1.1 and the “The level of expressed mRNA in the presence of chemical substance/The level of expressed mRNA in the absence of chemical substance” value (yeast gene YKL213C, metabolism protein genes) was 0.9. The “The level of expressed mRNA in the presence of chemical substance/The level of expressed mRNA in the absence of chemical substance” value (yeast gene YKR075C, cultured two hours with substance) was 2.3, the “The level of expressed mRNA in the presence of chemical substance/The level of expressed mRNA in the absence of chemical substance” value (yeast gene YKR091W, cultured two hours with substance) was 0.9 and the “The level of expressed mRNA in the presence of chemical substance/The level of expressed mRNA in the absence of chemical substance” value (yeast gene YLR008C, cultured two hours with substance) was 3.5. The “The level of expressed mRNA in the presence of chemical substance/The level of expressed mRNA in the absence of chemical substance” value (yeast gene YLR054C, cultured two hours with substance) was 1.1, the “The level of expressed mRNA in the presence of chemical substance/The level of expressed mRNA in the absence of chemical substance” value (yeast gene YLR103C, DNA repair protein genes, cultured two hours with substance) was 1.6 and the “The level of expressed mRNA in the presence of chemical substance/The level of expressed mRNA in the absence of chemical substance” value (yeast gene YLR149C, cultured two hours with substance) was 2.0. For the same molecule, the “The level of expressed mRNA in the presence of chemical substance/The level of expressed mRNA in the absence of chemical substance” value (yeast gene YLR152C, cultured two hours with substance) was 1.0, the “The level of expressed mRNA in the presence of chemical substance/The level of expressed mRNA in the absence of chemical substance” value (yeast gene YLR194C, cultured two hours with substance) was 1.6 and the “The level of expressed mRNA in the presence of chemical substance/The level of expressed mRNA in the absence of chemical substance” value (yeast gene YLR273C) was 0.9. For the same molecule, the “The level of expressed mRNA in the presence of chemical substance/The level of expressed mRNA in the absence of chemical substance” value (yeast gene YLR324W, cultured two hours with substance) was 0.8, the “The level of expressed mRNA in the presence of chemical substance/The level of expressed mRNA in the absence of chemical substance” value (yeast gene YLR345W, cultured for two hours with substance) was 1.6 and the “The level of expressed mRNA in the presence of chemical substance/The level of expressed mRNA in the absence of chemical substance” value (yeast gene YLR346C, cultured two hours with substance) was 4.2. For the same molecule, the “The level of expressed mRNA in the presence of chemical substance/The level of expressed mRNA in the absence of chemical substance” value (yeast gene YLR348C, metabolism protein genes) was 0.9, the “The level of expressed mRNA in the presence of chemical substance/The level of expressed mRNA in the absence of chemical substance” value (yeast gene YLR350W, cultured two hours with substance) was 1.8 and the “The level of expressed mRNA in the presence of chemical substance/The level of expressed mRNA in the absence of chemical substance” value (yeast gene YLR387C, cultured two hours with substance) was 1.1. The “The level of expressed mRNA in the presence of chemical substance/The level of expressed mRNA in the absence of chemical substance” value (yeast gene YLR460C, cultured two hours with substance) was 0.4, the “The level of expressed mRNA in the presence of chemical substance/The level of expressed mRNA in the absence of chemical substance” value (yeast gene YML054C, cultured for two hours with substance) was 1.8 and the “The level of expressed mRNA in the presence of chemical substance/The level of expressed mRNA in the absence of chemical substance” value (yeast gene YML117W, cultured two hours with substance) was 0.8. For the same molecule, the “The level of expressed mRNA in the presence of chemical substance/The level of expressed mRNA in the absence of chemical substance” value (yeast gene YMR009W, cultured two hours with substance) was 0.6, the “The level of expressed mRNA in the presence of chemical substance/The level of expressed mRNA in the absence of chemical substance” value (yeast gene YMR067C, cultured two hours with substance) was 1.1 and the “The level of expressed mRNA in the presence of chemical substance/The level of expressed mRNA in the absence of chemical substance” value (yeast gene YMR090W, cultured two hours with substance) was 2.2. The “The level of expressed mRNA in the presence of chemical substance/The level of expressed mRNA in the absence of chemical substance” value (yeast gene YMR095C, cultured two hours with substance) was 0.8, the “The level of expressed mRNA in the presence of chemical substance/The level of expressed mRNA in the absence of chemical substance” value (yeast gene YMR097C, cultured two hours with substance) was 1.2 and the “The level of expressed mRNA in the presence of chemical substance/The level of expressed mRNA in the absence of chemical substance” value (yeast gene YMR102C, cultured two hours with substance) was 2.4. The “The level of expressed mRNA in the presence of chemical substance/The level of expressed mRNA in the absence of chemical substance” value (yeast gene YMR107W, cultured two hours with substance) was 0.8, the “The level of expressed mRNA in the presence of chemical substance/The level of expressed mRNA in the absence of chemical substance” value (yeast gene YMR180C, cultured two hours with substance) was 1.2 and the “The level of expressed mRNA in the presence of chemical substance/The level of expressed mRNA in the absence of chemical substance” value (yeast gene YMR184W, cultured two hours with substance) was 1.7. For the same molecule, the “The level of expressed mRNA in the presence of chemical substance/The level of expressed mRNA in the absence of chemical substance” value (yeast gene YMR191W, cultured two hours with substance) was 1.8, the “The level of expressed mRNA in the presence of chemical substance/The level of expressed mRNA in the absence of chemical substance” value (yeast gene YMR215W, cultured two hours with the chemical substance) was 0.4 and the “The level of expressed mRNA in the presence of chemical substance/The level of expressed mRNA in the absence of chemical substance” value (yeast gene YMR295C, cultured two hours with substance) was 1.1. The “The level of expressed mRNA in the presence of chemical substance/The level of expressed mRNA in the absence of chemical substance” value (yeast gene YMR315W, cultured two hours with substance) was 2.0, the “The level of expressed mRNA in the presence of chemical substance/The level of expressed mRNA in the absence of chemical substance” value (yeast gene YMR316W, cultured two hours with substance) was 1.9 and the “The level of expressed mRNA in the presence of chemical substance/The level of expressed mRNA in the absence of chemical substance” value (yeast gene YNL044W, cultured two hours with substance) was 1.0. The “The level of expressed mRNA in the presence of chemical substance/The level of expressed mRNA in the absence of chemical substance” value (yeast gene YNL045W, metabolism protein genes) was 0.9 and the “The level of expressed mRNA in the presence of chemical substance/The level of expressed mRNA in the absence of chemical substance” value (yeast gene YNL074C, cultured two hours with substance) was 0.9.

— patent US20100041089A1, “IMPROVED METHOD FOR DETECTING CHEMICAL […]” (priority 2006, published 2010)
